In US20110129548A1, “Immunopotentiating Compositions Comprising Beta-1, 3/1, 6-D-Glucan and Uses Thereof” (BioAgra, LLC, priority 2006, published 2011):

Tests used:
[1] = system: macrophage cell line RAW264 cells; assay: Hydrogen peroxide production by RAW264 macrophages; format: cell-based, murine; settings: 1 h; for Fluorescence: control 229.00 ± 4.54
Method: To determine hydrogen peroxide production, macrophage cell line RAW264 cells were plated into 96 well tissue culture plates and cultured until confluent in phenol red-free alpha-minimum essential medium, supplemented with 10% fetal bovine serum. Once confluence was reached, the media was removed, the cells were washed, and substrate and test substances were added. To insure cell number uniformity at confluence, cell numbers were determined in 8 wells; if the number of cells differed by more than 10% the plate was not used. Following an incubation period of exactly 1h the reaction was stopped and resulting fluorescence measured with an ELISA-reader at λmax, excitation=312 nm, λmax, emission=420 nm. Zymosan, the residue from a hot alcoholic extraction of yeast, and curdlan, a linear beta-1,3-D-glucan, were used as positive controls.

[2] = system: blood cells (WBC, RBC, MON, PMN); assay: Effect of Vitamin D plus beta-1,3/1,6-D-glucan on blood cells (differential cell count); format: in vivo; settings: rabbits, capsules for 9 weeks
Method: To determine the effect of Vitamin D plus beta-1,3/1,6-D-glucan (AGRASTIM®) on the immunocompetence of an animal, rabbits (10 per group) were given capsules of equal weight comprising 10 mg of beta-1,3/1,6-D-glucan (AGRASTIM®), 10 mg of beta-1,3/1,6-D-glucan (AGRASTIM®) plus 50 IU of Vitamin D, or 50 IU Vitamin D for 9 weeks. At the end of 9 weeks the number of white blood cells (WBCs), red blood cells (RBCs), mononuclear cells (MONs), and polymorphonuclear cells (PMNs) were determined by differential cell count.

[3] = percent with the control set to 100

CURDLAN
H2O2-Release ([1]; dose 10 μg/assay): 0.76 nmol
Fluorescence ([1]; dose 10 μg/assay): 254.00 ± 1.02 arbitrary units
H2O2-Release ([1]; dose 50 μg/assay): 1.06 nmol
Fluorescence ([1]; dose 50 μg/assay): 345.00 ± 6.48 arbitrary units

Vitamin D
increase of PMNs [2]: 29%
increase of WBCs above control [2]: no effect
increase of the number of RBCs [2]: neither beta-1,3/1,6-D-glucan alone nor Vitamin D had significant effects
MON [2, 3]: 83%
PMN [2, 3]: 129%
RBC [2, 3]: 84%
WBC [2, 3]: 100%
